Measurements from ChEMBL document CHEMBL1154088, “Synthesis, biological evaluation and docking studies of novel benzopyranone congeners for their expected activity as anti-inflammatory, analgesic and antipyretic agents” (Bioorg Med Chem, 2009).

Key:
[1] = test system: Mus musculus; assay: Analgesic activity in mouse assessed as protection against acetic acid-induced writhing at one-tenth of LD50 administered subcutaneously 30 mins before acetic acid challenge measured after 4 hrs relative to control; type: functional
[2] = test system: Rattus norvegicus; assay: Antipyretic activity against yeast-induced hyperpyrexia in hyperthermic rat assessed as rectal temperature at one-tenth of LD50 administered subcutaneously 18 hrs after yeast challenge measured after 1 hr (Rvb=39.24 +/- 0.22 degC); type: functional
[3] = test system: Rattus norvegicus; assay: Antipyretic activity against yeast-induced hyperpyrexia in hyperthermic rat assessed as rectal temperature at one-tenth of LD50 administered subcutaneously 18 hrs after yeast challenge measured after 2 hrs (Rvb=39.11 +/- 0.26 degC); type: functional
[4] = test system: Rattus norvegicus; assay: Antipyretic activity against yeast-induced hyperpyrexia in hyperthermic rat assessed as rectal temperature at one-tenth of LD50 administered subcutaneously 18 hrs after yeast challenge measured after 3 hrs (Rvb=39.20 +/- 0.24 degC); type: functional
[5] = test system: Rattus norvegicus; assay: Antipyretic activity against yeast-induced hyperpyrexia in hyperthermic rat assessed as rectal temperature at one-tenth of LD50 administered subcutaneously 18 hrs after yeast challenge measured after 4 hrs (Rvb=39.17 +/- 0.20 degC); type: functional
[6] = Toxicity in sc dosed albino mouse up to 24 hrs; type: organism-based; settings: in vivo
[7] = test system: Rattus norvegicus; assay: Antiinflammatory activity against carrageenan-induced foot paw edema in rat assessed as reduction in paw size at one-tenth of LD50 administered subcutaneously 30 mins before carrageenan challenge measured after 3 hrs relative to control; type: functional; parameters: scale not given: the % may be the effect or the level left
[8] = test system: Mus musculus; assay: Analgesic activity in mouse assessed as protection against acetic acid-induced writhing at one-tenth of LD50 administered subcutaneously 30 mins before acetic acid challenge measured after 1 hr relative to control; type: functional
[9] = test system: Mus musculus; assay: Analgesic activity in mouse assessed as protection against acetic acid-induced writhing at one-tenth of LD50 administered subcutaneously 30 mins before acetic acid challenge measured after 2 hrs relative to control; type: functional
[10] = test system: Mus musculus; assay: Analgesic activity in mouse assessed as protection against acetic acid-induced writhing at one-tenth of LD50 administered subcutaneously 30 mins before acetic acid challenge measured after 3 hrs relative to control; type: functional

| SMILES | Activity [1] [%] | Activity [2] [°C] | Activity [3] [°C] | Activity [4] [°C] | Activity [5] [°C] | LD50 at 24 h [6] [mg/kg] | Activity [7] [%] | Activity [8] [%] | Activity [9] [%] | Activity [10] [%] |
| --- | --- | --- | --- | --- | --- | --- | --- | --- | --- | --- |
| COc1ccc(-c2cc(-c3c(O)ccc4c(-c5ccccc5)cc(=O)oc34)[nH]c(=O)c2C#N)cc1 | 1.18 | 38.81 | 38.71 | 38.64 | 38.91 | 330 | 5.78 | 0.94 | 2.84 | 9.47 |
| CN(C)c1ccc(/C=C/C(=O)c2c(O)ccc3c(-c4ccccc4)cc(=O)oc23)cc1 | 9.41 | 38.31 | 38.21 | 38.51 | 38.86 | 390 | 17.4 | 37.41 | 36.94 | 22.82 |
| N#Cc1c(-c2cccnc2)cc(-c2c(O)ccc3c(-c4ccccc4)cc(=O)oc23)[nH]c1=N | 5.15 | 39.11 | 38.94 | 38.91 | 38.91 | 370 | 16.21 | 7.49 | 7.02 | 5.15 |
| COc1cc(OC)c(-c2cc(-c3c(O)ccc4c(-c5ccccc5)cc(=O)oc34)[nH]c(=O)c2C#N)c(OC)c1 | 1.41 | 38.91 | 38.91 | 38.81 | 38.91 | 390 | 5.78 | 0.47 | 0.7 | 0.7 |
| C/C(=N\c1ccccc1N)c1c(O)ccc2c(-c3ccccc3)cc(=O)oc12 | 1.64 | 38.61 | 38.41 | 38.81 | 38.9 | 370 | 8.7 | 9.85 | 12.44 | 9.62 |
| N#Cc1c(-c2ccccc2O)cc(-c2c(O)ccc3c(-c4ccccc4)cc(=O)oc23)[nH]c1=N | 2.58 | 39.01 | 38.91 | 38.91 | 38.94 | 310 | 16.31 | 9.62 | 9.38 | 9.62 |
| O=c1cc(-c2ccccc2)c2ccc(O)c(C3=NNC(c4ccc(Cl)cc4)C3)c2o1 (stereo not given) | 1.18 | 38.9 | 38.84 | 38.9 | 38.91 | 310 | 17.4 | 0.71 | 1.65 | 1.65 |
| N#Cc1c(-c2cccnc2)cc(-c2c(O)ccc3c(-c4ccccc4)cc(=O)oc23)[nH]c1=O | 0.95 | 38.71 | 38.81 | 38.81 | 38.91 | 370 | 7.17 | 8.8 | 8.8 | 3.57 |
| C/C(=N\Nc1ccccc1)c1c(O)ccc2c(-c3ccccc3)cc(=O)oc12 | 1.17 | 39.11 | 38.81 | 38.91 | 38.91 | 290 | 12.35 | 3.75 | 2.58 | 2.81 |
| COc1ccc(C2CC(c3c(O)ccc4c(-c5ccccc5)cc(=O)oc34)=NN2c2ccc([N+](=O)[O-])cc2[N+](=O)[O-])cc1 (stereo not given) | 3.58 | 38.81 | 38.91 | 38.91 | 38.91 | 370 | 11.61 | 3.58 | 4.78 | 3.58 |
| COc1ccc(C2CC(c3c(O)ccc4c(-c5ccccc5)cc(=O)oc34)=NN2)cc1 (stereo not given) | 0.71 | 38.81 | 38.91 | 38.91 | 39.15 | 330 | 8.7 | 10 | 10.71 | 5.23 |
| N#Cc1c(-c2ccc(Cl)cc2)cc(-c2c(O)ccc3c(-c4ccccc4)cc(=O)oc23)[nH]c1=O | 1.66 | 38.91 | 38.84 | 38.81 | 38.91 | 310 | 16.35 | 0 | 1.18 | 0.71 |
| CN(C)c1ccc(C2CC(c3c(O)ccc4c(-c5ccccc5)cc(=O)oc34)=NN2c2ccccc2)cc1 (stereo not given) | 6.82 | 38.4 | 38.01 | 38.43 | 38.88 | 330 | 5.78 | 39.76 | 40.23 | 20.47 |
| CN(C)c1ccc(-c2cc(-c3c(O)ccc4c(-c5ccccc5)cc(=O)oc34)[nH]c(=N)c2C#N)cc1 | 3.76 | 38.38 | 38.17 | 38.39 | 38.89 | 310 | 18.85 | 9.41 | 12 | 11.52 |
| O=c1cc(-c2ccccc2)c2ccc(O)c(C3=NN(c4ccccc4)C(c4ccc(Cl)cc4)C3)c2o1 (stereo not given) | 3.11 | 38.91 | 38.81 | 38.91 | 39.05 | 330 | 18.85 | 0.71 | 2.63 | 3.35 |
| N#Cc1c(-c2ccccc2O)cc(-c2c(O)ccc3c(-c4ccccc4)cc(=O)oc23)[nH]c1=O | 6.38 | 38.34 | 38.2 | 38.47 | 38.91 | 290 | 4.33 | 41.84 | 30.49 | 19.14 |
| COc1ccc(/C=C/C(=O)c2c(O)ccc3c(-c4ccccc4)cc(=O)oc23)cc1 | 3.52 | 38.91 | 38.91 | 38.95 | 39.11 | 290 | 12.35 | 9.41 | 9.41 | 9.41 |
